Tested on: MDA-MB-468 cells
Test: MDA-MB-468 cell viability, CellTiter-Glo, 24 hrs
Type: cell-based, human
Conditions: 24 hrs incubation
Method: MDA-MB-468 cells, isolated from a pleural effusion of a patient with metastatic adenocarcinoma of the breast, is a triple negative breast cancer (TNBC) cell line. The IC 50 value of E05 or lapatinib (Sigma) or the structural analogues of E05 were tested in this cell line.
Briefly, MDA-MB-468 cells (ATCC #HTB-32) were seeded with a density of 5,000 cells per well in a 96 well white plate (Costar Cat #3917) in DMEM media supplemented with 10% FBS (assay medium). The plates were incubated at 37° C., 5% CO2 for 24 hr. E05 and analogues were diluted in the assay medium and added to the respective wells of the assay plate. The plates were further incubated at 37° C., 5% CO2 for 24 hrs. After the incubation, the cell viability was assessed using CellTiter-Glo® and the plates were read for luminescence using Cytation 5 (Biotek). The relative luminescence unit (RLU) obtained was plotted against the concentration and EC50 values were estimated using Graphpad Prism 5 software (FIG. 15 and Table 2).

COc1cc(C(=O)O)ccc1O [E05_G, 4-Hydroxy-3-methoxy-benzoic acid (Vanillic acid)]
Activity (EC50): Inactive

O=C(O)CCc1cccc(O)c1 [E05_C, 3-(3-Hydoxyphenyl)-propionic acid]
Activity (EC50): Inactive
